Drawing on US20260317298A1, “Cereblon Ligands and Uses Thereof” (REGENTS OF THE UNIVERSITY OF MICHIGAN, priority 2022, published 2026), this text covers IC50 for 17 compounds.

In general, IC50 refers to the point on the concentration scale where inhibition reaches its midpoint. Low readings indicate greater potency, high ones weaker potency.

Each structure is given as a SMILES string. Counter-ions that a name gives are not always drawn.

For the test, the target named is CRBN/DDB1 (Homo sapiens, UniProt Q96SW2). The experiment in a line: biochemical.
CRBN/DDB1, sequence (Q96SW2 whole entry): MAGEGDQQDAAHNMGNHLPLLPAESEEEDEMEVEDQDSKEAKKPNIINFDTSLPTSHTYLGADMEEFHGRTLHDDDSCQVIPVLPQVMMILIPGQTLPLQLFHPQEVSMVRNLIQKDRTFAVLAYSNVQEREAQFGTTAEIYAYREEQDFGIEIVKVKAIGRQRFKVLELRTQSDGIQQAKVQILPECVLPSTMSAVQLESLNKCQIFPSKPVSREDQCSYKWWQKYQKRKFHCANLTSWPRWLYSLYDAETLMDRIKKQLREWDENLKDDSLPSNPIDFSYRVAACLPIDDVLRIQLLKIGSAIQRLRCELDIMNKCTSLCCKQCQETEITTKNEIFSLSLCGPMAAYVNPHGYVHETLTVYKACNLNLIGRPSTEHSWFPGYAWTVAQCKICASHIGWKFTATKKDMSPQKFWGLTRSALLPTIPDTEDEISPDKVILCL
CRBN/DDB1, sequence (Q16531 whole entry partner): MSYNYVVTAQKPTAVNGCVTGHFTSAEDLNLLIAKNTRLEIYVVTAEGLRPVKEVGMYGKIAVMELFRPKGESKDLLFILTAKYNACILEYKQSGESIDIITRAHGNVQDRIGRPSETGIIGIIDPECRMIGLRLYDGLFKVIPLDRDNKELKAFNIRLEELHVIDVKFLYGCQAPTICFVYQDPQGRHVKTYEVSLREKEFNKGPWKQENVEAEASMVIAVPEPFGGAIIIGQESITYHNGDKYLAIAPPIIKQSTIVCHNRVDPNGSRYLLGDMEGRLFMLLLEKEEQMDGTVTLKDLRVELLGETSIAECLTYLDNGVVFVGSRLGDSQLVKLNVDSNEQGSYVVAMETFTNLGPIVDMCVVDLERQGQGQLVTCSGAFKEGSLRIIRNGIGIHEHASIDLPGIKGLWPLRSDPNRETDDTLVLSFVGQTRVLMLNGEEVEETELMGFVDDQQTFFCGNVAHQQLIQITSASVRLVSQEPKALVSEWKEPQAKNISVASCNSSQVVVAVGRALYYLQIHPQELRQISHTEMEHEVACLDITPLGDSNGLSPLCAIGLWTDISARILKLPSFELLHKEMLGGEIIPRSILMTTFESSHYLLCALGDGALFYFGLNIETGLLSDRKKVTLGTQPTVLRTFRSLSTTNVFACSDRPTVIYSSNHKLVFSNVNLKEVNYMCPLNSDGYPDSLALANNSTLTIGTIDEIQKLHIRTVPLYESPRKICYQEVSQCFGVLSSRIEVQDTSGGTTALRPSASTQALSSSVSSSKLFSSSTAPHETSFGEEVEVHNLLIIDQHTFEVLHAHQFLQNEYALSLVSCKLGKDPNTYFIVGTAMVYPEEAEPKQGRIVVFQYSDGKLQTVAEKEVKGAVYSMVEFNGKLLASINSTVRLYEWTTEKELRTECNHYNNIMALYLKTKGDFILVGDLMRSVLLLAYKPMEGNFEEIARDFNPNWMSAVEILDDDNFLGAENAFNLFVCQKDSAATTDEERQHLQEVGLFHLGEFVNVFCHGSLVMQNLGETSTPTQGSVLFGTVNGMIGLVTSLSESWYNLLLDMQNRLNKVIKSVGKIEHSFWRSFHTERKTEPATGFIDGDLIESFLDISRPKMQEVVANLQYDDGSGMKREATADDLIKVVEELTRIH
Method: The CRBN−DDB1 binding potency of the present disclosure was determined using HTRF assay technology (Perkin Elmer). Compounds are serially diluted and are transferred multi-well plate. The reaction was conducted with addition of His tagged (e.g., CRBN+DDB-DLS7+CXU4) followed by addition of fluorescent probe (e.g., Cy5-labeled Thalidomide), and MAb Anti-6HIS Tb cryptate Gold in the assay buffer. After certain period of incubation at room temperature, the HTRF signals were read on a reader.
The binding potency was determined using HTRF assay technology (Perkin Elmer). Compounds were serially diluted in DMSO and 0.2 μL volume was transferred to white 384-well plate. […] After one hour incubation at room temperature, the HTRF signals were read on Envision reader (Perkin Elemer). Data was analyzed using XLfit using four parameters dose response curve to determine IC50s.
In turn, `Cc1cc([C@@]23CCNC[C@@H]2C3(F)F)ccc1N[C@H]1CCC(=O)NC1=O` [Compound 8, (S)-3-((4-((1R,6R)-7,7-difluoro-3-azabicyclo[4.1.0]heptan-6-yl)-2-methylphenyl)amino)piperidine-2,6-dione] came in with an IC50 of 500 to 5000 nM.
The same measure for `O=C1CC[C@H](Oc2ccc3c(c2)OCC32CCNCC2)C(=O)N1` [Compound 6, (S)-3-((2H-spiro[benzofuran-3,4′-piperidin]-6-yl)oxy)piperidine-2,6-dione]: 500 to 5000 nM; for `O=C1CCC(Nc2ccc3c(c2)OCC32CCNCC2)C(=O)N1` (stereo in doubt) [Compound 11, (R)-3-((2H-spiro[benzofuran-3,4′-piperidin]-6-yl)amino)piperidine-2,6-dione]: 50 to 500 nM.
The same measure for `O=C1CC[C@H](Nc2ccc([C@@]34CCNC[C@@H]3C4(F)F)cc2)C(=O)N1` (single isomer, unassigned) [Compound 1]: 500 to 5000 nM.
The same measure for `O=C1CCC(Nc2cc(F)c3c(c2)OCC32CCNCC2)C(=O)N1` (centres unmarked) [Compound 19, 3-((4-fluoro-2H-spiro[benzofuran-3,4′-piperidin]-6-yl)amino)piperidine-2,6-dione HCl salt]: 50 to 500 nM; for `Cc1cc([C@@]23CCNC[C@@H]2C3(F)F)ccc1N[C@@H]1CCC(=O)NC1=O` [Compound 7, (R)-3-((4-((1R,6R)-7,7-difluoro-3-azabicyclo[4.1.0]heptan-6-yl)-2-methylphenyl)amino)piperidine-2,6-dione]: over 5000 nM; for `O=C1CCC2(CC1)COc1cc(NC3CCC(=O)NC3=O)ccc12` (centres unmarked) [Compound 17, 3-((4′-oxo-2H-spiro[benzofuran-3,1′-cyclohexan]-6-yl)amino)piperidine-2,6-dione]: 500 to 5000 nM.
As for `Cc1cc([C@]23CCNC[C@H]2C3(F)F)ccc1N[C@H]1CCC(=O)NC1=O` [Compound 10, (S)-3-((4-((1S,6S)-7,7-difluoro-3-azabicyclo[4.1.0]heptan-6-yl)-2-methylphenyl)amino)piperidine-2,6-dione], the IC50 is over 5000 nM.
In the case of `O=C1CC[C@@H](Oc2ccc3c(c2)OCC32CCNCC2)C(=O)N1` [Compound 5, (R)-3-((2H-spiro[benzofuran-3,4′-piperidin]-6-yl)oxy)piperidine-2,6-dione] it was 500 to 5000 nM; in that of `O=C1CCC(Nc2ccc3c(c2)COC32CCNCC2)C(=O)N1` (centres unmarked) [Compound 15, 3-((3H-spiro[isobenzofuran-1,4′-piperidin]-5-yl)amino)piperidine-2,6-dione HCO2H salt], 500 to 5000 nM.
The compound `O=C1CC[C@H](Nc2ccc([C@]34CCNC[C@H]3C4(F)F)cc2)C(=O)N1` [Compound 4, (S)-3-((4-((1S,6S)-7,7-difluoro-3-azabicyclo[4.1.0]heptan-6-yl)phenyl)amino)piperidine-2,6-dione] came in with an IC50 of 500 to 5000 nM.
In the case of `Cc1cc([C@]23CCNC[C@H]2C3(F)F)ccc1N[C@@H]1CCC(=O)NC1=O` [Compound 9, (R)-3-((4-((1S,6S)-7,7-difluoro-3-azabicyclo[4.1.0]heptan-6-yl)-2-methylphenyl)amino)piperidine-2,6-dione] it was 500 to 5000 nM; in that of `O=C1CCC(Nc2ccc3c(c2)OCC32CCNCC2(F)F)C(=O)N1` (centres unmarked) [Compound 16, 3-((3′,3′-difluoro-2H-spiro[benzofuran-3,4′-piperidin]-6-yl)amino)piperidine-2,6-dione], 500 to 5000 nM.
In the case of `O=C1CC[C@@H](Nc2ccc([C@]34CCNC[C@H]3C4(F)F)cc2)C(=O)N1` [Compound 3, (R)-3-((4-((1S,6S)-7,7-difluoro-3-azabicyclo[4.1.0]heptan-6-yl)phenyl)amino)piperidine-2,6-dione] it was 500 to 5000 nM; in that of `O=C1CCC(Nc2ccc3c(c2)OCC32CCNCC2)C(=O)N1` (stereo in doubt) [Compound 12, (S)-3-((2H-spiro[benzofuran-3,4′-piperidin]-6-yl)amino)piperidine-2,6-dione], 500 to 5000 nM.
In the case of `O=C1CC[C@@H](Nc2ccc([C@@]34CCNC[C@@H]3C4(F)F)cc2)C(=O)N1` (single isomer, unassigned) [Compound 2] it was 500 to 5000 nM; in that of `O=C1CCC(Nc2cc3c(cc2F)C2(CCNCC2)CO3)C(=O)N1` (centres unmarked) [Compound 18, 3-((5-fluoro-2H-spiro[benzofuran-3,4′-piperidin]-6-yl)amino)piperidine-2,6-dione HCl salt], 500 to 5000 nM.
